In one experiment the test system is Hs-578T. Kind of experiment: Antiproliferative activity against human Hs 578T cells after 48 hrs by WST8 assay. The experiment is classed as functional.
The subject of another experiment is MCF7. Briefly: Antiproliferative activity against human MCF7 cells after 48 hrs by WST8 assay. The experiment is classed as functional. The settings on record: for GI50: MCF7, 48 h. For orientation: Tetrazolium assays rely on reduction of a dye to a coloured formazan, in cell work by metabolically active cells.

Usually GI50 stands for the concentration giving 50% growth inhibition. Read a low GI50 as greater sensitivity of the cells. In the case of `CCCCC/C=C/c1c(O)ccc(O)c1CO`, the Activity entry with Hs-578T and in the experiment with MCF7 was “Dose-dependent effect” throughout. Also, the GI50 in the experiment on Hs-578T worked out at 59.7 µM; in the experiment with MCF7, 61.5 µM.
As to `CCCCCC[C@@H](O)c1c(O)ccc(O)c1CO`, the GI50 in the experiment on Hs-578T and in the experiment on MCF7 was greater than 100 µM throughout.
Take `CCCCCC[C@H](O)c1c(O)ccc(O)c1CO`: the concentration for 50% growth inhibition (GI50) in the experiment with Hs-578T and in the experiment with MCF7 was greater than 100 µM throughout.
